Test results as given in patent publication US20080096811A1, “[…] VPAC2 RECEPTOR PEPTIDE AGONISTS” (Eli Lilly and Company, published 2008).
*1 amine or outer side, *2 acyl side, *3 side chain or, on linkers, in order; H or OH if unused. Where a SMILES comes first, the peptide text is derived from it. Where no end group is shown, it is not given here. Side-chain parts run from the residue outwards. The star is where a group is joined. γGlu = O=C(O)[C@H](CCC(=O)[*:2])N[*:1]; Hydrocinnamoyl = O=C(CCc1ccccc1)*; Palmitoyl = CCCCCCCCCCCCCCCC(=O)*; Hexanoyl = CCCCCC(=O)*; Bz = O=C(c1ccccc1)*

B1: P118 (peptide)
peptide: Hexanoyl-HSDAVFTDNYTRLRKQVAAKKYLQSIKNSRTSPPPK(Trp)-NH2
SMILES: CCCCCC(=O)N[C@@H](Cc1c[nH]cn1)C(=O)N[C@@H](CO)C(=O)N[C@@H](CC(=O)O)C(=O)N[C@@H](C)C(=O)N[C@H](C(=O)N[C@@H](Cc1ccccc1)C(=O)N[C@H](C(=O)N[C@@H](CC(=O)O)C(=O)N[C@@H](CC(N)=O)C(=O)N[C@@H](Cc1ccc(O)cc1)C(=O)N[C@H](C(=O)N[C@@H](CCCNC(=N)N)C(=O)N[C@@H](CC(C)C)C(=O)N[C@@H](CCCNC(=N)N)C(=O)N[C@@H](CCCCN)C(=O)N[C@@H](CCC(N)=O)C(=O)N[C@H](C(=O)N[C@@H](C)C(=O)N[C@@H](C)C(=O)N[C@@H](CCCCN)C(=O)N[C@@H](CCCCN)C(=O)N[C@@H](Cc1ccc(O)cc1)C(=O)N[C@@H](CC(C)C)C(=O)N[C@@H](CCC(N)=O)C(=O)N[C@@H](CO)C(=O)N[C@H](C(=O)N[C@@H](CCCCN)C(=O)N[C@@H](CC(N)=O)C(=O)N[C@@H](CO)C(=O)N[C@@H](CCCNC(=N)N)C(=O)N[C@H](C(=O)N[C@@H](CO)C(=O)N1CCC[C@H]1C(=O)N1CCC[C@H]1C(=O)N1CCC[C@H]1C(=O)N[C@@H](CCCCNC(=O)[C@@H](N)Cc1c[nH]c2ccccc12)C(N)=O)[C@@H](C)O)[C@@H](C)CC)C(C)C)[C@@H](C)O)[C@@H](C)O)C(C)C
B2: P309 (peptide)
peptide: HSDAVFTDNYTRLRXQVAAXKYLQSIKNSRTSPPP
modifications: N-terminal hexanoyl (C6); Aib (amino isobutyric acid) at positions 15 and 20; C-terminal amide (-NH2)
B3: P97 (peptide)
peptide: HSDAVFTDNYTRLRKAAAAKKYLQSIKNSRTSPPP-NH2

Tests used:
human VPAC1 = biological target: T1, human VPAC1 (Homo sapiens, UniProt P32241); assay: Filter binding assay, human VPAC1 membranes, 125I-labeled VIP tracer; design: expressed in transfected cells
T1 sequence (P32241 31-457): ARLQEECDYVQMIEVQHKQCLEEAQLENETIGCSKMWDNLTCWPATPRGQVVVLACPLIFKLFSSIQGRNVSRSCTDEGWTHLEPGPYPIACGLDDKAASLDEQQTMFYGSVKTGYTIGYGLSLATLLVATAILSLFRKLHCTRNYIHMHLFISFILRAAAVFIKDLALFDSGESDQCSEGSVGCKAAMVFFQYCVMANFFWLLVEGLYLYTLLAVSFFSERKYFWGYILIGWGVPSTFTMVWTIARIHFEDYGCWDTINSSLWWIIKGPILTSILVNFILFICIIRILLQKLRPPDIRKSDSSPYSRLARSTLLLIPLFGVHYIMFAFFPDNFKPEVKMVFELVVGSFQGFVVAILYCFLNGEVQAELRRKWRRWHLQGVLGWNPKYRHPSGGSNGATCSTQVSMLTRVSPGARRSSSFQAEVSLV
Description: (§1) For this assay, the solutions and equipment include:
(§2) Presoak solution: 0.5% Polyethyleneamine in Aqua dest.
(§3) Buffer for flushing filter plates: 25 mM […] pH 7.4
(§4) Blocking buffer: 25 mM HEPES pH 7.4; 0.2% protease free BSA
(§5) Assay buffer: 25 mM HEPES pH 7.4; 0.5% protease free BSA
(§6) Dilution and assay plate: PS-Microplate, U form
(§7) Filtration Plate Multiscreen FB Opaque Plate; […] Type B Glasfiber filter
(§8) In order to prepare the filter plates, aspirate the presoak solution by vacuum filtration. Flush the plates twice with 200 μL flush buffer. Add 200 μL blocking buffer to the filter plate. The filter plate is then incubated […] for 1 hour at room temperature.
(§9) Fill the assay plate with 25 μL assay buffer, 25 μL membranes (2.5 μg) suspended in assay buffer, 25 μL compound (agonist) in assay buffer, and 25 μL tracer (about 40000 cpm) in assay buffer. Incubate the filled plate for 1 hour with shaking.
(§10) Conduct the transfer from assay plate to filter plate. Aspirate the blocking buffer by vacuum filtration and wash two times with flush buffer. Transfer 90 μL from the assay plate to the filter plate. Aspirate the 90 μL transferred from assay plate and wash three times with 200 μL flush buffer. Remove the plastic support. Dry for 1 hour at 60° C. Add 30 μL Microscint. Perform the count.

human VPAC2 [1] = biological target: T2, human VPAC2 (Homo sapiens, UniProt P41587); assay: DiscoveRx cAMP in vitro potency, human VPAC2; format: cell-based
T2 construct: expressed in transfected cells
T2 sequence (P41587 24-438): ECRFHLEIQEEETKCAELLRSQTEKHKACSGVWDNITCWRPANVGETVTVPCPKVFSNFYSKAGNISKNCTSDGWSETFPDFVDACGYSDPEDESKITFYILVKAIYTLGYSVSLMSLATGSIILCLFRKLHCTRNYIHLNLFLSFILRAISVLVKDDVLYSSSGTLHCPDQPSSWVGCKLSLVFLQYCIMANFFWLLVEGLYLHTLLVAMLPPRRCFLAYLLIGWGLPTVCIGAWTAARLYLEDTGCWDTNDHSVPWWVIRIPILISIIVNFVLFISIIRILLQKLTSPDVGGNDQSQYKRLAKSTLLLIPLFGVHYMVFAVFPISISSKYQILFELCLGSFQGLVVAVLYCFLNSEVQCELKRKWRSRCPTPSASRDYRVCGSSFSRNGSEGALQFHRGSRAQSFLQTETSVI
Description: Also, the cells are washed twice. The cells are incubated in assay buffer plus IBMX for 15 minutes at room temperature. […] The stimuli are present for 30 minutes. Then, the assay buffer is gently removed. […] At day 3, the assay described above for the VPAC2 receptor cell line is performed.

human VPAC2 [2] = biological target: T2, human VPAC2; assay: Alpha screen cAMP in vitro potency, human VPAC2; format: cell-based
Description: Alpha screen: Cells are washed in the culture flask once with PBS. Then, the cells are rinsed with enzyme free dissociation buffer. The dissociated cells are removed. The cells are then spun down and washed in stimulation buffer. For each data point, 50,000 cells suspended in stimulation buffer are used. To this buffer, Alpha screen acceptor beads are added along with the stimuli. This mixture is incubated for 60 minutes. Lysis buffer and Alpha screen donor beads are added and are incubated for 60 to 120 minutes. The Alpha screen signal (indicative of intracellular cAMP levels) is read in a suitable instrument (e.g. AlphaQuest from Perlin-Elmer). Steps including Alpha screen donor and acceptor beads are performed in reduced light.

human VPAC2 [3] = biological target: T2, human VPAC2; assay: Filter binding assay, human VPAC2 membranes, 125I-labeled VIP tracer
Description: as §1, §2, §3, §4, §5, §6, §7, §8, §9, §10

rat VPAC1 receptor = biological target: T3, rat VPAC1 receptor (rat, UniProt P30083); assay: cell-based or functional assay
T3 sequence: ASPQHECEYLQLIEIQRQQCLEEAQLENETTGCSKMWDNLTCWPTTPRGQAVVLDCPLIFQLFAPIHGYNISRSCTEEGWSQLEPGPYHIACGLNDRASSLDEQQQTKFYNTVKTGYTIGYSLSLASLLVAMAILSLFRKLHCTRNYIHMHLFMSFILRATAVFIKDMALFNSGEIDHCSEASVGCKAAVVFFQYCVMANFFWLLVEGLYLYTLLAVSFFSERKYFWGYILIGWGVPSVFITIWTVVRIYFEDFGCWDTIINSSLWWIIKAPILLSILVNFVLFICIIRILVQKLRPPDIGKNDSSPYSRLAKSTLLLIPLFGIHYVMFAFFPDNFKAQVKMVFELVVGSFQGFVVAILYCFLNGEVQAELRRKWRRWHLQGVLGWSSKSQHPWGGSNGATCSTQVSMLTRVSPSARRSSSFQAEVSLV

[4] = biological target: T4, human VPAC2 receptor (human) (UniProt P41587)
T4 sequence: T2 sequence (P41587 24-438)

rat VPAC2 receptor = biological target: T5, rat VPAC2 receptor (rat, UniProt P35000); assay: cell-based or functional assay
T5 sequence: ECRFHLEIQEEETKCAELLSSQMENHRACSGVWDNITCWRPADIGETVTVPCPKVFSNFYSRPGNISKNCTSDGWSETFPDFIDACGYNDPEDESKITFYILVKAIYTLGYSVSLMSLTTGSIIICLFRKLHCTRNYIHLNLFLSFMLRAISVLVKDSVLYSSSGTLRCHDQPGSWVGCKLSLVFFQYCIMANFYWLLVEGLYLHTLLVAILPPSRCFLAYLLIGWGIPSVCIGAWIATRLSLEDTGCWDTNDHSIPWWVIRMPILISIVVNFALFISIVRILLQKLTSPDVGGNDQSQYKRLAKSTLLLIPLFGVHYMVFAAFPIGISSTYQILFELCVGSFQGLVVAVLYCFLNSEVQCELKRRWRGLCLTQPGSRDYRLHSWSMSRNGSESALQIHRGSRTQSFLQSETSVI

Molecule	IC50 (human VPAC1)	EC50 (human VPAC2 [1])	EC50 (human VPAC2 [2])	IC50 (human VPAC2 [3])	EC50 for cAMP generation, DiscoveRx (rat VPAC1 receptor)	EC50 (nM) for cAMP generation, Alpha Screen [4]	EC50 for cAMP generation, DiscoveRx (rat VPAC2 receptor)
CC[C@H](C)[C@H](NC(=O)[C@H](CO)NC(=O)[C@H](CCC(N)=O)NC(=O)[C@H](CC(C)C)NC(=O)[C@H](Cc1ccc(O)cc1)NC(=O)[C@H](CCCCN)NC(=O)[C@H](CCCCN)NC(=O)[C@H](C)NC(=O)[C@H](C)NC(=O)[C@@H](NC(=O)[C@H](CCC(N)=O)NC(=O)[C@H](CCCCN)NC(=O)[C@H](CCCNC(=N)N)NC(=O)[C@H](CC(C)C)NC(=O)[C@H](CCCNC(=N)N)NC(=O)[C@@H](NC(=O)[C@H](Cc1ccc(O)cc1)NC(=O)[C@H](CC(N)=O)NC(=O)[C@H](CC(=O)O)NC(=O)[C@@H](NC(=O)[C@H](Cc1ccccc1)NC(=O)[C@@H](NC(=O)[C@H](C)NC(=O)[C@H](CC(=O)O)NC(=O)[C@H](CO)NC(=O)[C@H](Cc1c[nH]cn1)NC(=O)c1ccccc1)C(C)C)[C@@H](C)O)[C@@H](C)O)C(C)C)C(=O)N[C@@H](CCCCN)C(=O)N[C@@H](CC(N)=O)C(=O)N[C@@H](CO)C(=O)N[C@@H](CCCNC(=N)N)C(=O)N[C@H](C(=O)N[C@@H](CO)C(=O)N1CCC[C@H]1C(=O)N1CCC[C@H]1C(=O)N1CCC[C@H]1C(N)=O)[C@@H](C)O [Agonist P91] (Bz-HSDAVFTDNYTRLRKQVAAKKYLQSIKNSRTSPPP-NH2)	58.2 nM	0.76 nM	1.9 nM	0.21 nM	–	–	–
CC[C@H](C)[C@H](NC(=O)[C@H](CO)NC(=O)[C@H](CCC(N)=O)NC(=O)[C@H](CC(C)C)NC(=O)[C@H](Cc1ccc(O)cc1)NC(=O)[C@H](CCCCN)NC(=O)[C@H](CCCCN)NC(=O)[C@H](C)NC(=O)[C@H](C)NC(=O)[C@@H](NC(=O)[C@H](CCC(N)=O)NC(=O)[C@H](CCCCN)NC(=O)[C@H](CCCNC(=N)N)NC(=O)[C@H](CC(C)C)NC(=O)[C@H](CCCNC(=N)N)NC(=O)[C@@H](NC(=O)[C@H](Cc1ccc(O)cc1)NC(=O)[C@H](CC(N)=O)NC(=O)[C@H](CC(=O)O)NC(=O)[C@@H](NC(=O)[C@H](Cc1ccccc1)NC(=O)[C@@H](NC(=O)[C@H](C)NC(=O)[C@H](CC(=O)O)NC(=O)[C@H](CO)NC(=O)[C@H](Cc1c[nH]cn1)NC(=O)CCc1ccccc1)C(C)C)[C@@H](C)O)[C@@H](C)O)C(C)C)C(=O)N[C@@H](CCCCN)C(=O)N[C@@H](CC(N)=O)C(=O)N[C@@H](CO)C(=O)N[C@@H](CCCNC(=N)N)C(=O)N[C@H](C(=O)N[C@@H](CO)C(=O)N1CCC[C@H]1C(=O)N1CCC[C@H]1C(=O)N1CCC[C@H]1C(N)=O)[C@@H](C)O [Agonist P90] (Hydrocinnamoyl-HSDAVFTDNYTRLRKQVAAKKYLQSIKNSRTSPPP-NH2)	65 nM	1.7 nM	4.01 nM	0.82 nM	–	–	–
CCCCCCCCCCCCCCCC(=O)N[C@@H](CCC(=O)NCCCC[C@H](NC(=O)[C@@H]1CCCN1C(=O)[C@@H]1CCCN1C(=O)[C@@H]1CCCN1C(=O)[C@H](CO)NC(=O)[C@@H](NC(=O)[C@H](CCCNC(=N)N)NC(=O)[C@H](CO)NC(=O)[C@H](CC(N)=O)NC(=O)[C@H](CCCCN)NC(=O)[C@@H](NC(=O)[C@H](CO)NC(=O)[C@H](CCC(N)=O)NC(=O)[C@H](CC(C)C)NC(=O)[C@H](Cc1ccc(O)cc1)NC(=O)[C@H](CCCCN)NC(=O)[C@H](CCCCN)NC(=O)[C@H](C)NC(=O)[C@H](C)NC(=O)[C@@H](NC(=O)[C@H](CCC(N)=O)NC(=O)[C@H](CCCCN)NC(=O)[C@H](CCCNC(=N)N)NC(=O)[C@H](CC(C)C)NC(=O)[C@H](CCCNC(=N)N)NC(=O)[C@@H](NC(=O)[C@H](Cc1ccc(O)cc1)NC(=O)[C@H](CC(N)=O)NC(=O)[C@H](CC(=O)O)NC(=O)[C@@H](NC(=O)[C@H](Cc1ccccc1)NC(=O)[C@@H](NC(=O)[C@H](C)NC(=O)[C@H](CC(=O)O)NC(=O)[C@H](CO)NC(=O)[C@@H](N)Cc1c[nH]cn1)C(C)C)[C@@H](C)O)[C@@H](C)O)C(C)C)[C@@H](C)CC)[C@@H](C)O)C(N)=O)C(=O)O [Agonist P80] (H-HSDAVFTDNYTRLRKQVAAKKYLQSIKNSRTSPPPK([γGlu-Palmitoyl])-NH2)	284 nM	2.8 nM	1.82 nM	31.6 nM	–	–	–
B1	–	–	–	–	0.47 nM	–	–
B2	–	–	–	–	–	0.16 nM	0.05 nM
B3	–	–	–	–	0.3 nM	0.64 nM	–
